The source of these data is PMC8151276, “An Integrated Approach toward NanoBRET Tracers for Analysis of GPCR Ligand Engagement” (Molecules, 2021).

For test [1], the target named is T1, PTGER4 (Homo sapiens, UniProt P35408).
T1 construct: purchased Promega (in-house HiBiT-GPCR construct library, NanoBRET)
Kind of test: NanoBRET screen HiBiT-PTGER4 in HEK293. It is filed as binding. The procedure: (§1) Each tracer candidate was screened across the entire library of HiBiT-GPCR constructs using NanoBRET as the detection modality. As depicted in Figure 4A, the specificity of interactions was evaluated through decrease in BRET due to competitive displacement of a bound tracer by excess parental compound. Each tracer was analyzed for binding to each HiBiT-GPCR fusion in the absence and in the presence of competing parental compound. Briefly, HEK293 cells were transfected with HiBiT-GPCR constructs diluted into promoterless DNA to reduce expression and maximize translocation to the cell surface. Each tracer candidate was then screened at concentrations of 1 μM and 0.1 μM across cells expressing these fusions. Cells were treated for 1.5 h with tracer either alone or in the presence of 20 μM competing parental compound (i.e., control). BRET was measured upon addition of purified LgBiT and subsequent complementation with HiBiT genetically fused to a GPCR. The specificity of interactions was assessed through a decrease in BRET signal due to competitive displacement of the bound tracer. To further gauge the robustness of these interactions, the fold response over the control (i.e., BRETtracer/BRETcontrol) was calculated. We chose a 1.5-fold response, which translates to ≥7-fold signal over noise as the minimal threshold required to score an interaction as positive. […]. Below we highlight the screening results obtained for our exemplary fluorescent tracers based on Clozapine, Amitriptyline and AZD1283.
(§2) HiBiT-GPCR DNA constructs were diluted in 10 mM Tris pH 8 to a final concentration of 0.01 μg/μL, arrayed in 96-well plates and stored at −20 °C. For transfection, HEK293 cells were suspended in Opti-MEM (without phenol red) supplemented with 2% fetal bovine serum (Seradigm) and 100 units/mL penicillin–streptomycin (Gibco) at a final concentration of 220,000 cells/mL and dispensed into white 96-well plates at 90 μL/well. Subsequent transfections and screens were carried using an Agilent Bravo Automated Liquid Handling Platform. First, the 96-well HiBiT DNA arrays were diluted 25-fold in Opti-MEM (without serum or phenol red) to a final concentration of 0.0004 μg/μL and 20 μL of the diluted DNAs were transferred into new 96-well plates. Next, promoterless carrier DNA (1 μg/μL) was diluted 25-fold (0.04 μg/μL) and then dispensed into the diluted arrays at 20 μL/well. Following brief mixing, Viafect transfection reagent (Promega) diluted 16-fold into Opti-MEM was dispensed into the plates at 40 μL/well. After mixing by pipetting, plates were incubated for 10 min on the pipetting station deck. The DNA-transfection reagent complexes were then added to plates containing cells. To facilitate the screen, 10 μL of DNA-transfection reagent complexes were added in duplicates to the top 4 and bottom 4 rows, resulting in two identical 48-well arrays per plate. Plates with transfected cells were incubated for 18–20 h at 37 °C/5% CO2. A screen of each tracer across the entire library using two different concentrations requires duplicate plates of transfected cells. Depending on the number of tracers being screened, transfections can be scaled up using the same ratios. The next day, for each tracer, four 20× screening solutions in tracer dilution buffer (Promega) were prepared: two duplicates at final concentration of 20 μM and two duplicates at a final concentration of 2 μM. A competing unmodified compound was added to one of each duplicate at a final concentration of 400 μM. The four resulting solutions were diluted 4-fold in Opti-MEM without serum or phenol red to generate 5× solutions (5 µM and 0.5 µM tracer +/− 100 μM competing compound). To screen the library, a BioTek MultiFlo FX liquid dispenser was used to dispense 22.5 µL of tracer solution to the top 4 rows and 22.5 µL tracer + competing compound solution to the 4 bottom rows. Plates were briefly mixed on an orbital shaker and incubated for 1.5 h at room temperature. […]

The target of test [2] is T2, GABBR2 (Homo sapiens, UniProt O75899).
T2 construct: purchased Promega (in-house HiBiT-GPCR construct library, NanoBRET)
T2 sequence (O75899 42-941): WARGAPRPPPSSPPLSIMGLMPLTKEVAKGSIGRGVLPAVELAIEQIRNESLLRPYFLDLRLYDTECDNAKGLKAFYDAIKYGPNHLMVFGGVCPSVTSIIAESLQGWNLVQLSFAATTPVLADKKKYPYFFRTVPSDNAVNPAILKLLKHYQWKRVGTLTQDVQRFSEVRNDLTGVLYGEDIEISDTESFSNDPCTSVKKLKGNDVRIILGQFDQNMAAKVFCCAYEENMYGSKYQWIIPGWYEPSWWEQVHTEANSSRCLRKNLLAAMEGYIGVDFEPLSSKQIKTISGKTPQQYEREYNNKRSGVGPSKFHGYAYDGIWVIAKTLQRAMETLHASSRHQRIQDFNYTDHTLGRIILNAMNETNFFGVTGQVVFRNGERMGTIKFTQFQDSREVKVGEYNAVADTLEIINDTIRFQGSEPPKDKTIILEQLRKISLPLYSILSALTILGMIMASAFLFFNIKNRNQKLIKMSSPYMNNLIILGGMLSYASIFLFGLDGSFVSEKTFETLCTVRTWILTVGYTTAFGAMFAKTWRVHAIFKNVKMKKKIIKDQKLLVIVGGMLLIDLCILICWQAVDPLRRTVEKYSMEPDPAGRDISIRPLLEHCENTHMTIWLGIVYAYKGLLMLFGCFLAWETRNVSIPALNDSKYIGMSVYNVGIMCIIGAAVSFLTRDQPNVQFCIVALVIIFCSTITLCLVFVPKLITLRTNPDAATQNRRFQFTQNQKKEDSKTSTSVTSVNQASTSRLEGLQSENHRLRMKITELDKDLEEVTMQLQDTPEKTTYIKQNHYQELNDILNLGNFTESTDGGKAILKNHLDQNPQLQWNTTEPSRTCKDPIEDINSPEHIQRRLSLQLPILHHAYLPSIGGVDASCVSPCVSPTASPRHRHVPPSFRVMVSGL
Description: NanoBRET screen HiBiT-GABBR2 in HEK293. It is filed as binding. On the procedure: as §1, §2

T1 sequence (P35408 whole entry): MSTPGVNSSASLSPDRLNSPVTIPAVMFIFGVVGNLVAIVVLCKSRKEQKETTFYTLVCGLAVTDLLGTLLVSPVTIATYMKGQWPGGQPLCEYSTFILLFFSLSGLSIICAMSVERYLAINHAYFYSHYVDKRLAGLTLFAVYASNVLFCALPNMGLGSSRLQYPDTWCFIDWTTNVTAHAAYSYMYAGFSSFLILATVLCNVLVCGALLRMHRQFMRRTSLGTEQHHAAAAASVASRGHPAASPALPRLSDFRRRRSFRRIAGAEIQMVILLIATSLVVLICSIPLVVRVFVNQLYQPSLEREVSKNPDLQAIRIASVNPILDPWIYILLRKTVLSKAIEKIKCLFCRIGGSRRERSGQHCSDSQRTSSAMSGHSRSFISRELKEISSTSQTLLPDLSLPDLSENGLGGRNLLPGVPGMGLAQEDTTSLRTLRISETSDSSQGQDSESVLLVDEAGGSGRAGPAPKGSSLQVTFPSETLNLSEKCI

Consider `COc1ccc2c(n1)c(CCNC(C)=O)cn2CCNC(=O)CCc1ccc2n1[B-](F)(F)[N+]1=C(c3ccc[nH]3)C=CC1=C2` [Azamelatonin-1-NB590], for which the “NanoBRET Fold Response” value in test [1] (0.1μM tracer) was 1.06; in test [1] (1μM tracer), 0.96; in test [2] (0.1μM tracer), 0.96; in test [2] (1μM tracer), 0.96.

Consider `CC(C)N(CC[C@H](c1ccccc1)c1cc(CCNC(=O)c2ccc(CNC(=O)CCc3ccc4n3[B-](F)(F)[N+]3=C(c5ccc[nH]5)C=CC3=C4)cc2)ccc1O)C(C)C` [Tolterodine-BZ-NB590], for which the “NanoBRET Fold Response” value turned out to be 1.02 in test [1] (PTGER4, tracer 0.1μM); 1.04 in test [1] (PTGER4, tracer 1μM); 0.87 in test [2] (GABBR2, tracer 0.1μM); 0.71 in test [2] (GABBR2, tracer 1μM).

`O=C(CCc1ccc2n1[B-](F)(F)[N+]1=C(c3ccc[nH]3)C=CC1=C2)NCCOCCOCCNC(=O)OCCOCCN1CCN(C2=Nc3ccccc3Sc3ccccc32)CC1` [Quetiapine-a-2-NB590]: the “NanoBRET Fold Response” value in test [1] (PTGER4, tracer 0.1μM) was determined as 1.02; in test [1] (PTGER4, tracer 1μM) it was 1.08; in test [2] (GABBR2, tracer 0.1μM), 1.06; in test [2] (GABBR2, tracer 1μM), 0.91.

For the molecule `Cc1cc2c(s1)Nc1ccccc1N=C2N1CCN(CCCNC(=O)CCOCCOCCOCCOCCNC(=O)CCc2ccc3n2[B-](F)(F)[N+]2=C(c4ccc[nH]4)C=CC2=C3)CC1` [Olanzapine-a-2-NB590], the “NanoBRET Fold Response” value was 1.02 in test [1] (PTGER4, tracer 0.1μM); 1.07 in test [1] (PTGER4, tracer 1μM); 1.01 in test [2] (GABBR2, tracer 0.1μM); 0.82 in test [2] (GABBR2, tracer 1μM).

Consider `O=C(CCc1ccc2n1[B-](F)(F)[N+]1=C(c3ccc[nH]3)C=CC1=C2)NCc1ccc(C(=O)NCCOCCOCCNCC(O)COc2cccc3ccccc23)cc1` (stereo not drawn) [Propranolol-3-NB590], for which the “NanoBRET Fold Response” value in test [1] (PTGER4, 0.1μM) is on record as 1.04; in test [1] (PTGER4, 1μM) it was 1.06; in test [2] (GABBR2, 0.1μM), 0.96; in test [2] (GABBR2, 1μM), 1.13.

For the molecule `CN1CCN(C2=Nc3cc(Cl)ccc3N(CC(=O)NCCOCCOCCOCCOCCNC(=O)CCc3ccc4n3[B-](F)(F)[N+]3=C(c5ccc[nH]5)C=CC3=C4)c3ccccc32)CC1` [Clozapine-c-2-NB590], the “NanoBRET Fold Response” value in test [1] (PTGER4, 0.1μM tracer) was determined as 1.00; in test [1] (PTGER4, 1μM tracer), 1.05; in test [2] (GABBR2, 0.1μM tracer) it was 0.99; in test [2] (GABBR2, 1μM tracer), 1.02.

In the case of `O=C(CCc1ccc2n1[B-](F)(F)[N+]1=C(c3ccc[nH]3)C=CC1=C2)NCc1ccc(C(=O)NCCOCCC(=O)N[C@@H]2CC[C@@]3(O)[C@H]4Cc5ccc(O)c6c5[C@@]3(CCN4CC3CC3)[C@H]2O6)cc1` [Naltrexone-3-NB590], the “NanoBRET Fold Response” value in test [1] (PTGER4, tracer 0.1μM) is given as 0.94; in test [1] (PTGER4, tracer 1μM), 1.01; in test [2] (GABBR2, tracer 0.1μM), 0.80; in test [2] (GABBR2, tracer 1μM), 1.11.

Consider `CC(C)N(CC[C@H](c1ccccc1)c1cc(CCNC(=O)CCOCCOCCOCCOCCNC(=O)CCc2ccc3n2[B-](F)(F)[N+]2=C(c4ccc[nH]4)C=CC2=C3)ccc1O)C(C)C` [Tolterodine-2-NB590], for which the “NanoBRET Fold Response” value turned out to be 1.00 in test [1] (PTGER4, tracer 0.1μM); 0.99 in test [1] (PTGER4, tracer 1μM); 1.15 in test [2] (GABBR2, tracer 0.1μM); 1.02 in test [2] (GABBR2, tracer 1μM).

Turning to `Cc1nc2n(c(=O)c1CCN1CCC(c3noc4cc(F)ccc34)CC1)CCCC2OC(=O)NCCOCCOCCOCCOCCNC(=O)CCc1ccc2n1[B-](F)(F)[N+]1=C(c3ccc[nH]3)C=CC1=C2` (stereo not drawn) [Risperidone-2-NB590], the “NanoBRET Fold Response” value in test [1] (PTGER4, tracer 0.1μM) was found to be 1.00; in test [1] (PTGER4, tracer 1μM), 1.04; in test [2] (GABBR2, tracer 0.1μM), 1.07; in test [2] (GABBR2, tracer 1μM), 1.17.

Regarding `CN(CCC=C1c2ccccc2CCc2ccccc21)C(=O)CCOCCOCCOCCOCCNC(=O)CCc1ccc2n1[B-](F)(F)[N+]1=C(c3ccc[nH]3)C=CC1=C2` [Amitriptyline-e-2-NB590], the “NanoBRET Fold Response” value in test [2] (tracer at 1μM) is 1.08.

For `CN(C)CCC=C1c2ccccc2CCc2ccc(C(=O)NCCNC(=O)CCOCCOCCOCCOCCNC(=O)CCc3ccc4n3[B-](F)(F)[N+]3=C(c5ccc[nH]5)C=CC3=C4)cc21` [Amitriptyline-a-2-NB590], the “NanoBRET Fold Response” value in test [2] (tracer at 0.1μM) is reported as 1.08; in test [2] (tracer at 1μM), 0.95.
